In patent US9963448B2, “Bicyclic inhibitors of PAD4” (Padlock Therapeutics, Inc., priority 2015, dated 2018):
Counter-ions that a name gives are not always drawn. Like-named read-outs stand apart in the source and are kept apart here.

Experiments:
[1] = target: hPAD4 (Homo sapiens, UniProt Q9UM07); test: hPAD4 RFMS (RapidFire mass spectrometry) PAD4 inhibition assay; assay type: biochemical; settings: hPAD4 enzyme, RFMS readout;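 for hPAD4 RFMS pIC50: grade E means pIC50 at most 4 and F means pIC50 4.0 to 5.0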
Procedure: (§1) Compounds of the present invention were assayed as inhibitors of PAD4 using the assay protocol described below.
(§2) Compound stock solutions were stored at RT. […] Final assay conditions were as follows:
(§3) Total incubation time: 65 mins at 37° C.
(§4) Stop solution: 40 μl 5% TCA in ACN
(§5) The compound numbers correspond to the compound numbers in Table 1. […] The term pIC50=−log(IC50). […] “NA” stands for “not assayed.”

[2] = target: mPAD4 (Mus musculus, UniProt Q9Z183); test: mPAD4 RFMS PAD4 inhibition assay; assay type: biochemical; settings: mPAD4, RFMS readout;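 for mPAD4 RFMS pIC50: grade E means pIC50 at most 4 and F means pIC50 4.0 to 5.0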
Procedure: as §1, §2, §3, §4, §5

[3] = pIC50=−log(IC50), read-out: hPAD4 RFMS pIC50 (converted)
[4] = pIC50=−log(IC50), read-out: mPAD4 RFMS pIC50 (converted)

Sequence of mPAD4 (Q9Z183 whole entry): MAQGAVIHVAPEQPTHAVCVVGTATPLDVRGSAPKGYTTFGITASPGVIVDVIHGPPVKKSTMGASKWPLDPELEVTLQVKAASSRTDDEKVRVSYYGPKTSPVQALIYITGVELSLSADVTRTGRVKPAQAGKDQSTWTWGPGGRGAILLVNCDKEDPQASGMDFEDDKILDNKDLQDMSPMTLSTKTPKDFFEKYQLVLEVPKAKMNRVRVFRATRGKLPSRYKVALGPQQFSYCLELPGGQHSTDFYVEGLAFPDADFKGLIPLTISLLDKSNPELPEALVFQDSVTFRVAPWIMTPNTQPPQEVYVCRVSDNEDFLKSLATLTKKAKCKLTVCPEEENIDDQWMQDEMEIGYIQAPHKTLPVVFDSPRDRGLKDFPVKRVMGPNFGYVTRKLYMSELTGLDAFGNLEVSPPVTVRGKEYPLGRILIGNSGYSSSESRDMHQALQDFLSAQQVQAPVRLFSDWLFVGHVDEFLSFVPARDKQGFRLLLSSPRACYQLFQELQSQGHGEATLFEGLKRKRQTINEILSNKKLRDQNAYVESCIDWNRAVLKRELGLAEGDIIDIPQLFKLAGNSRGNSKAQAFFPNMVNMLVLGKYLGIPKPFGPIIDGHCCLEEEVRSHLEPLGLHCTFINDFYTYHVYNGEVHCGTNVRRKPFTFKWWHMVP
Sequence of hPAD4 (Q9UM07 whole entry): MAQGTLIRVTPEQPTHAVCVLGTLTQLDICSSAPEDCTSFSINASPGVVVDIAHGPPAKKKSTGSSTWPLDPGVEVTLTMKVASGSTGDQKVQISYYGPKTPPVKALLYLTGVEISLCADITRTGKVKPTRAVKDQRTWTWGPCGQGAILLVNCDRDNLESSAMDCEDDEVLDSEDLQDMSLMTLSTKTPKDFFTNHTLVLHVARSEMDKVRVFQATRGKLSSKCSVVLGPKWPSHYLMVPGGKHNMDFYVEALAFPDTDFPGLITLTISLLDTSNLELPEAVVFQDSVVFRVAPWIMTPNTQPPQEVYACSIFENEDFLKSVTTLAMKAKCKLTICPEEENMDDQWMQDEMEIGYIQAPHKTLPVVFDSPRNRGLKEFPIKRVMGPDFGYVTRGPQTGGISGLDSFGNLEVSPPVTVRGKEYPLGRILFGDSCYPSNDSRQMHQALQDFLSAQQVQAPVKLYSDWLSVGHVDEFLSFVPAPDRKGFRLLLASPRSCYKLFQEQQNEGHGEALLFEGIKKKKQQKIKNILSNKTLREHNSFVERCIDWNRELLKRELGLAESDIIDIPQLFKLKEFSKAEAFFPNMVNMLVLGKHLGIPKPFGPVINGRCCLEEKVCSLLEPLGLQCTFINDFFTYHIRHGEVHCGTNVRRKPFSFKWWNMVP

IC50 [1, 3] [nM]	IC50 ([1]; read-out: hPAD4 RFMS IC50) [nM]	IC50 [2, 4] [nM]	IC50 ([2]; read-out: mPAD4 RFMS IC50) [nM]	hPAD4 RFMS pIC50 ([1]; pIC50=−log(IC50))	SMILES
1000 to 10000	1000 to 5000	< 1000	< 1000	–	CCn1c(-c2cc3ccc(OC)nc3n2CC2CC2)nc2cc(C(=O)N3C[C@@H](N)C[C@H](F)C3)cc(OC)c21 [Compound I-92]
1000 to 10000	1000 to 5000	1000 to 10000	1000 to 5000	–	COc1cc(C(=O)N2CC[C@H](OC)[C@H](N)C2)cc2nc(-c3cc4cccnc4n3CC3CC3)n(C)c12 [Compound I-142]
1000 to 10000	1000 to 5000	1000 to 10000	1000 to 5000	–	COCCn1c(-c2nc3cc(C(=O)N4CCC[C@@H](N)C4)ccc3n2C)cc2ccc(OC)nc21 [Compound I-193]
< 1000	< 1000	< 1000	< 1000	–	CCc1ccc2cc(-c3nc4cc(C(=O)N5CCC[C@@H](N)C5)cc(OC)c4n3CC)n(CC3CC3)c2n1 [Compound I-105, (3R)-1-{2-[1-(cyclopropylmethyl)-6-ethyl-1H-pyrrolo[2,3-b]pyridin-2-yl]-1-ethyl-7-methoxy-1H-1,3-benzodiazole-5-carbonyl}piperidin-3-amine]
< 1000	< 1000	< 1000	< 1000	–	CCn1c(-c2nc3cc(C(=O)N4C[C@H]5CC[C@@H]4[C@@H]5N)cc(OC)c3n2C)cc2cccnc21 [Compound I-159]
10000 to 100000	> 10000	10000 to 100000	> 10000	–	CO[C@H]1CCN(C(=O)c2ccc3c(c2)nc(-c2cc4cccnc4n2CC2CC2)n3C)C[C@H]1N (single isomer, unassigned) [Compound I-65]
1000 to 10000	1000 to 5000	< 1000	< 1000	–	COc1cc(C(=O)N2CCC[C@@H](N)C2)cc2nc(-c3cc4cccnc4n3CCF)n(C)c12 [Compound I-146]
1000 to 10000	5000 to 10000	1000 to 10000	1000 to 5000	–	COCCn1c(-c2nc3cc(C(=O)N4C[C@H](N)CC[C@@H]4C)cc(OC)c3n2C)cc2cccnc21 [Compound I-195]
1000 to 10000	1000 to 5000	< 1000	< 1000	–	Cn1c(-c2cc3cccnc3n2CC2CC2)nc2cc(C(=O)N3C[C@@H](N)C[C@H](F)C3)cc(OC(F)F)c21 [Compound I-73]
1000 to 10000	1000 to 5000	< 1000	< 1000	–	CCOc1cc(C(=O)N2CC(N)CCC2C)cc2nc(-c3cc4cccnc4n3CC3CC3)n(C)c12 (centres unmarked) [Compound I-111]
–	> 10000	> 100000	> 10000	E/F	COc1cc(C(=O)N2CCOC3(CNC3)C2)cc2nc(-c3cc4cccnc4n3CC3CC3)n(C)c12 [Compound I-122]
10000 to 100000	> 10000	10000 to 100000	> 10000	–	COc1cc(C(=O)N2C[C@H]3CC[C@@H]2[C@@H](N)C3)cc2nc(-c3cc4cccnc4n3CC3CC3)n(C)c12 [Compound I-216]
< 1000	< 1000	< 1000	< 1000	–	COc1cc(C(=O)N2CCC[C@@H](N)C2)cc2nc(-c3cc4cccnc4n3CC3CC3)n(CC3CC(C)(O)C3)c12 (some centres unmarked) [Compound I-114]
1000 to 10000	1000 to 5000	1000 to 10000	1000 to 5000	–	CCn1c(-c2nc3cc(C(=O)N4CCC[C@@H](N)C4)cc(OC)c3n2CC2CCOCC2)cc2cccnc21 [Compound I-174]
10000 to 100000	> 10000	10000 to 100000	> 10000	–	COc1cc(C(=O)N2C[C@@H]3[C@@H](N)[C@@H]3C2)cc2nc(-c3cc4cccnc4n3CC3CC3)n(C)c12 [Compound I-76]
10000 to 100000	> 10000	10000 to 100000	> 10000	–	Cn1c(-c2cc3cccnc3n2CC2CC2)nc2cc(C(=O)N3CC[C@@H]4CCN[C@@H]4C3)ccc21 [Compound I-18]
1000 to 10000	1000 to 5000	1000 to 10000	1000 to 5000	–	COc1cc(C(=O)N2CCC(F)C(N)C2)cc2nc(-c3cc4cccnc4n3CC3CC3)n(C)c12 (centres unmarked) [Compound I-56]
< 1000	< 1000	< 1000	< 1000	–	CCn1c(-c2nc3cc(C(=O)N4CC5CCC4C5N)cc(OC)c3n2C)cc2ccc(OC)nc21 (racemic) [Compound I-136]

IC50 [1, 3] [nM]	IC50 ([1]; read-out: hPAD4 RFMS IC50) [nM]	IC50 [2, 4] [nM]	IC50 ([2]; read-out: mPAD4 RFMS IC50) [nM]	hPAD4 RFMS pIC50 ([1]; pIC50=−log(IC50))	SMILES
< 1000	< 1000	< 1000	< 1000	–	COc1cc(C(=O)N2C[C@H]3CC[C@@H]2[C@@H]3N)cc2nc(-c3cc4ccc(C(C)(C)O)nc4n3CC3CC3)n(C)c12 [Compound I-210, 2-(2-{5-[(1R,4R,7R)-7-Amino-2-azabicyclo[2.2.1]heptane-2-carbonyl]-7-methoxy-1-methyl-1H-1,3-benzodiazol-2-yl}-1-(cyclopropylmethyl)-1H-pyrrolo[2,3-b]pyridin-6-yl)propan-2-ol]
< 1000	< 1000	< 1000	< 1000	–	COc1cc(C(=O)N2CCC[C@@H](N)C2)cc2nc(-c3cc4ccc(C(C)(C)O)nc4n3CC3CC3)n(C)c12 [Compound I-211]
< 1000	< 1000	< 1000	< 1000	–	COc1cc(C(=O)N2C[C@H](N)C[C@@H](F)C2)cc2nc(-c3cc4cccnc4n3CC3CC3)n(C)c12 [Compound I-35]
10000 to 100000	> 10000	10000 to 100000	> 10000	–	COc1cc(C(=O)N2C[C@H]3CC4OC(=O)N[C@H]3[C@@H]42)cc2nc(-c3cc4cccnc4n3CC3CC3)n(C)c12 [Compound I-187, (1S,2R,8R)-10-{2-[1-(Cyclopropylmethyl)-1H-pyrrolo[2,3-b]pyridin-2-yl]-7-methoxy-1-methyl-1H-1,3-benzodiazole-5-carbonyl}-5-oxa-3,10-diazatricyclo[4.4.0.0^2,8]decan-4-one]
< 1000	< 1000	1000 to 10000	1000 to 5000	–	COc1cc(C(=O)N2C[C@H]3CC[C@@H]2[C@@H]3N)cc2nc(-c3cc4cccnc4n3CC3CC3)n([C@H]3C[C@@H](OC)C3)c12 [Compound I-219]
< 1000	< 1000	< 1000	< 1000	–	CCn1c(-c2nc3cc(C(=O)N4C[C@H]5CC[C@@H]4[C@@H]5N)cc(OC)c3n2C)cc2ccc(C)nc21 [Compound I-160]
< 1000	< 1000	< 1000	< 1000	–	COc1cc(C(=O)N2C[C@H]3CC[C@@H]2[C@@H]3N)cc2nc(-c3cc4cccnc4n3CC3CC3)n([C@H]3C[C@H](F)C3)c12 [Compound I-224]
< 1000	< 1000	< 1000	< 1000	–	COc1cc(C(=O)N2CCC[C@@H](N)C2)cc2nc(-c3cc4ccc(C)nc4n3CC3CC3)n(C)c12 [Compound I-199]
1000 to 10000	5000 to 10000	1000 to 10000	1000 to 5000	–	COc1cc(C(=O)N2C[C@@H](N)C[C@H](O)C2)cc2nc(-c3cc4cccnc4n3CC3CC3)n(C)c12 (racemic) [Compound I-80]
10000 to 100000	> 10000	10000 to 100000	> 10000	–	CN[C@@H]1C[C@@H](O)CN(C(=O)c2cc(OC)c3c(c2)nc(-c2cc4cccnc4n2CC2CC2)n3C)C1 (racemic) [Compound I-77, Rel-(3R,5R)-1-{2-[1-(cyclopropylmethyl)-1H-pyrrolo[2,3-b]pyridin-2-yl]-7-methoxy-1-methyl-1H-1,3-benzodiazole-5-carbonyl}-5-(methylamino)piperidin-3-ol hydrochloride]
< 1000	< 1000	< 1000	< 1000	–	CCn1c(-c2nc3cc(C(=O)N4C[C@H]5CC[C@@H]4[C@@H]5N)cc(OC)c3n2C)cc2ccc(OC)nc21 [Compound I-139]
< 1000	< 1000	< 1000	< 1000	–	COc1cc(C(=O)N2CC3CCC2[C@H]3N)cc2nc(-c3cc4cccnc4n3CC3CC3)n(C)c12 (some centres unmarked) [Compound I-31]
1000 to 10000	1000 to 5000	< 1000	< 1000	–	CCn1c(-c2cc3cccnc3n2CC2CC2)nc2cc(C(=O)N3C[C@@H](N)C[C@H](F)C3)cc(OC)c21 [Compound I-71]
< 1000	< 1000	< 1000	< 1000	–	COc1cc(C(=O)N2C[C@H](N)C[C@@H](F)C2)cc2nc(-c3cc4cccnc4n3CC3CC3)n(C[C@H]3C[C@@](C)(OC)C3)c12 [Compound I-209]
< 1000	< 1000	1000 to 10000	1000 to 5000	–	CCn1c(-c2nc3cc(C(=O)N4C[C@H]5CC[C@@H]4[C@@H]5N)cc(OC)c3n2CC2CCOCC2)cc2cccnc21 [Compound I-173]
< 1000	< 1000	< 1000	< 1000	–	CCn1c(-c2nc3cc(C(=O)N4C[C@H]5CC[C@@H]4[C@@H]5N)cc(OC)c3n2C)cc2ccc(C(F)(F)F)nc21 [Compound I-183]
1000 to 10000	< 1000	10000 to 100000	> 10000	–	CC(=O)Nc1ccnc2c1cc(-c1nc3cc(C(=O)N4CCC[C@@H](N)C4)ccc3n1C)n2CC1CC1 [Compound I-69, N-(2-{5-[(3R)-3-Aminopiperidine-1-carbonyl]-1-methyl-1H-1,3-benzodiazol-2-yl}-1-(cyclopropylmethyl)-1H-pyrrolo[2,3-b]pyridin-4-yl)acetamide]
